This note sets out measurements from US10004701B2, “Methods and compositions for treating infection” (UNIVERSITY OF ROCHESTER, priority 2012, dated 2018).

Each structure is given as a SMILES string. Structures can show the parent of a compound that is named as a salt. Where two headings read alike, the source gives them in different places.

Common to all, as to test: AK assay 384-well format, Prestwick library screening
The test system of one assay is P. aeruginosa. In kind it is cell-based, Pseudomonas aeruginosa. Particulars: for fold induction at 50 µM: Pseudomonas aeruginosa, 3 h.
In assay [1] the test system is S. aureus strain USA300-0114. In kind it is cell-based, Staphylococcus aureus. Particulars: for fold induction at 50 µM: Staphylococcus aureus, USA300, 3 h.
The test system of assay [2] is A. baumannii strain 98-37-09. The format is cell-based, Acinetobacter baumannii. Conditions: for fold induction at 50 µM: Acinetobacter baumannii, 983709, 3 h.
The next assay has as its system E. faecium. In kind it is cell-based, Enterococcus faecium. Conditions: for fold induction at 50 µM: Enterococcus faecium, 3 h.
The test system of the next assay is K. pneumoniae. The format is cell-based, Klebsiella pneumoniae. Conditions: for fold induction at 50 µM: Klebsiella pneumoniae, 3 h.
The subject of the next assay is E. coli. The format is cell-based, Escherichia coli. Conditions: for fold induction at 50 µM: Escherichia coli, 3 h.
Setting [3] is: planktonic E. coli, 50 μM final drug concentration, 384-well, […].

Take `COc1cc2nc(N3CCN(C(=O)c4ccco4)CC3)nc(N)c2cc1OC` [Prazosin hydrochloride]: the fold induction at 50 µM in the assay with P. aeruginosa (50 μM final drug concentration, cutoff for positive-scoring molecules 3-fold increase, read-out: AK-based Prestwick Library Screening Results, P. aeruginosa (fold increase in extracellular AK activity)) amounted to 1.1; in assay [1] (50 μM final drug concentration, cutoff for positive-scoring molecules 3-fold increase, read-out: AK-based Prestwick Library Screening Results, S. aureus (fold increase in extracellular AK activity)) it was 1.4; in assay [2] (50 μM final drug concentration, cutoff for positive-scoring molecules 3-fold increase, read-out: AK-based Prestwick Library Screening Results, A. baumannii (fold increase in extracellular AK activity)), 1.4; in the assay on E. faecium (50 μM final drug concentration, cutoff for positive-scoring molecules 3-fold increase, read-out: AK-based Prestwick Library Screening Results, E. faecium (fold increase in extracellular AK activity)), 1.1; with K. pneumoniae (50 μM final drug concentration, cutoff for positive-scoring molecules 3-fold increase, read-out: AK-based Prestwick Library Screening Results, K. pneumoniae (fold increase in extracellular AK activity)), 0.9; in the assay on E. coli (50 μM final drug concentration, cutoff for positive-scoring molecules 3-fold increase, read-out: AK-based Prestwick Library Screening Results, E. coli (fold increase in extracellular AK activity)), 1.2.

In the case of `CN1[C@@H]2CC[C@H]1C[C@@H](OC(=O)C(CO)c1ccccc1)C2` (stereo partly drawn) [Atropine sulfate monohydrate], the fold induction at 50 µM in the assay with P. aeruginosa (planktonic P. aeruginosa, 50 μM final drug concentration, […], read-out: AK-based Prestwick Library Screening Results, P. aeruginosa (increase in extracellular AK activity)) is 0.5; in assay [1] (planktonic S. aureus, 50 μM final drug concentration, […], read-out: AK-based Prestwick Library Screening Results, S. aureus (increase in extracellular AK activity)) it was 0.5; in assay [2] (planktonic A. baumannii, 50 μM final drug concentration, […], read-out: AK-based Prestwick Library Screening Results, A. baumannii (increase in extracellular AK activity)) it was 0.5; with E. faecium (planktonic E. faecium, 50 μM final drug concentration, […], read-out: AK-based Prestwick Library Screening Results, E. faecium (increase in extracellular AK activity)), 0.8; with K. pneumoniae (planktonic K. pneumoniae, 50 μM final drug concentration, […], read-out: AK-based Prestwick Library Screening Results, K. pneumoniae (increase in extracellular AK activity)), 0.5; with E. coli (planktonic E. coli, 50 μM final drug concentration, […], read-out: AK-based Prestwick Library Screening Results, E. coli (increase in extracellular AK activity)) it was 0.6.

With `CN1[C@@H]2CC[C@H]1C[C@@H](OC(=O)[C@H](CO)c1ccccc1)C2` [Hyoscyamine (L)], the “AK-based Prestwick Library Screening Results: P. aeruginosa (increase in extracellular AK activity)” value in the assay with P. aeruginosa (planktonic P. aeruginosa, 50 μM final drug concentration, 384-well, […]) was found to be 1.2. The “AK-based Prestwick Library Screening Results: S. aureus (increase in extracellular AK activity)” value in assay [1] (planktonic S. aureus, 50 μM final drug concentration, 384-well, […]) worked out at 1.2. Also, the “AK-based Prestwick Library Screening Results: A. baumannii (increase in extracellular AK activity)” value in assay [2] (planktonic A. baumannii, 50 μM final drug concentration, 384-well, […]) was found to be 1.4. Further, the “AK-based Prestwick Library Screening Results: E. faecium (increase in extracellular AK activity)” value in the assay with E. faecium (planktonic E. faecium, 50 μM final drug concentration, 384-well, […]) stood at 1.0. Further, the “AK-based Prestwick Library Screening Results: K. pneumoniae (increase in extracellular AK activity)” value in the assay with K. pneumoniae (planktonic K. pneumoniae, 50 μM final drug concentration, 384-well, […]) is given as 1.2. Moreover, the “AK-based Prestwick Library Screening Results: E. coli (increase in extracellular AK activity)” value in the assay with E. coli (setting [3]) is on record as 1.3.

With `CN(C)CCCN1c2ccccc2CCc2ccccc21` [Imipramine hydrochloride], the fold induction at 50 µM is 1.1 in the assay with P. aeruginosa (planktonic P. aeruginosa, 50 μM final drug concentration, 384-well, cutoff for positive-scoring molecules 3-fold increase, read-out: AK-based Prestwick Library Screening Results: P. aeruginosa (increase in extracellular AK activity)); 1.2 in assay [1] (planktonic S. aureus, 50 μM final drug concentration, 384-well, cutoff for positive-scoring molecules 3-fold increase, read-out: AK-based Prestwick Library Screening Results: S. aureus (increase in extracellular AK activity)); 1.3 in assay [2] (planktonic A. baumannii, 50 μM final drug concentration, 384-well, cutoff for positive-scoring molecules 3-fold increase, read-out: AK-based Prestwick Library Screening Results: A. baumannii (increase in extracellular AK activity)); 0.9 with E. faecium (planktonic E. faecium, 50 μM final drug concentration, 384-well, cutoff for positive-scoring molecules 3-fold increase, read-out: AK-based Prestwick Library Screening Results: E. faecium (increase in extracellular AK activity)); 1 in the assay on K. pneumoniae (planktonic K. pneumoniae, 50 μM final drug concentration, 384-well, cutoff for positive-scoring molecules 3-fold increase, read-out: AK-based Prestwick Library Screening Results: K. pneumoniae (increase in extracellular AK activity)); 1.2 with E. coli (planktonic E. coli, 50 μM final drug concentration, 384-well, cutoff for positive-scoring molecules 3-fold increase, read-out: AK-based Prestwick Library Screening Results: E. coli (increase in extracellular AK activity)).

For the molecule `CCOC(=O)c1cncn1[C@H](C)c1ccccc1` [Etomidate], the fold induction at 50 µM in the assay on P. aeruginosa (50 μM final drug concentration, […], read-out: AK-based Prestwick Library Screening Results, P. aeruginosa (fold increase in extracellular AK activity)) amounted to 0.4; in assay [1] (50 μM final drug concentration, […], read-out: AK-based Prestwick Library Screening Results, S. aureus (fold increase in extracellular AK activity)) it was 0.3; in assay [2] (50 μM final drug concentration, […], read-out: AK-based Prestwick Library Screening Results, A. baumannii (fold increase in extracellular AK activity)) it was 0.3; with E. faecium (50 μM final drug concentration, […], read-out: AK-based Prestwick Library Screening Results, E. faecium (fold increase in extracellular AK activity)), 0.9; with K. pneumoniae (50 μM final drug concentration, […], read-out: AK-based Prestwick Library Screening Results, K. pneumoniae (fold increase in extracellular AK activity)) it was 0.4; with E. coli (50 μM final drug concentration, […], read-out: AK-based Prestwick Library Screening Results, E. coli (fold increase in extracellular AK activity)), 0.5.

In the case of `COc1ccc(CCN(C)CCCC(C#N)(c2ccc(OC)c(OC)c2)C(C)C)cc1OC.Cl` (stereo not drawn) [Verapamyl hydrochloride], in the assay on P. aeruginosa (planktonic P. aeruginosa, 50 μM final drug concentration, 384-well, cutoff for positive-scoring molecules 3-fold increase), the “AK-based Prestwick Library Screening Results: P. aeruginosa (increase in extracellular AK activity)” value is listed as 1.2. Moreover, the “AK-based Prestwick Library Screening Results: S. aureus (increase in extracellular AK activity)” value in assay [1] (planktonic S. aureus, 50 μM final drug concentration, 384-well, cutoff for positive-scoring molecules 3-fold increase) stood at 1.2. Moreover, the “AK-based Prestwick Library Screening Results: A. baumannii (increase in extracellular AK activity)” value in assay [2] (planktonic A. baumannii, 50 μM final drug concentration, 384-well, cutoff for positive-scoring molecules 3-fold increase) amounted to 1.5. The “AK-based Prestwick Library Screening Results: E. faecium (increase in extracellular AK activity)” value in the assay with E. faecium (planktonic E. faecium, 50 μM final drug concentration, 384-well, cutoff for positive-scoring molecules 3-fold increase) is recorded as 0.9. Besides, the “AK-based Prestwick Library Screening Results: K. pneumoniae (increase in extracellular AK activity)” value in the assay with K. pneumoniae (planktonic K. pneumoniae, 50 μM final drug concentration, 384-well, cutoff for positive-scoring molecules 3-fold increase) worked out at 0.9. Besides, the “AK-based Prestwick Library Screening Results: E. coli (increase in extracellular AK activity)” value with E. coli (setting [3]) was 1.3.

On to `C=C[C@H]1C[N@@]2CC[C@H]1C[C@@H]2[C@@H](O)c1ccnc2ccc(OC)cc12` [Quinidine hydrochloride monohydrate], for which the fold induction at 50 µM in the assay with P. aeruginosa (50 μM final drug concentration, 384-well format, […], read-out: AK-based Prestwick Library Screening Results, P. aeruginosa (increase in extracellular AK activity)) stood at 0.9; in assay [1] (50 μM final drug concentration, 384-well format, […], read-out: AK-based Prestwick Library Screening Results, S. aureus (increase in extracellular AK activity)), 0.9; in assay [2] (50 μM final drug concentration, 384-well format, […], read-out: AK-based Prestwick Library Screening Results, A. baumannii (increase in extracellular AK activity)), 0.9; in the assay on E. faecium (50 μM final drug concentration, 384-well format, […], read-out: AK-based Prestwick Library Screening Results, E. faecium (increase in extracellular AK activity)), 1; in the assay with K. pneumoniae (50 μM final drug concentration, 384-well format, […], read-out: AK-based Prestwick Library Screening Results, K. pneumoniae (increase in extracellular AK activity)), 0.8; in the assay on E. coli (50 μM final drug concentration, 384-well format, […], read-out: AK-based Prestwick Library Screening Results, E. coli (increase in extracellular AK activity)) it was 1.

Take `Clc1ccccc1CN1CCc2sccc2C1` [Ticlopidine hydrochloride]: the fold induction at 50 µM in the assay on P. aeruginosa (50 μM final drug concentration, 384-well format, cutoff for positive-scoring molecules 3-fold increase, read-out: AK-based Prestwick Library Screening Results, P. aeruginosa (increase in extracellular AK activity)) was determined as 1.1; in assay [1] (50 μM final drug concentration, 384-well format, cutoff for positive-scoring molecules 3-fold increase, read-out: AK-based Prestwick Library Screening Results, S. aureus (increase in extracellular AK activity)), 0.8; in assay [2] (50 μM final drug concentration, 384-well format, cutoff for positive-scoring molecules 3-fold increase, read-out: AK-based Prestwick Library Screening Results, A. baumannii (increase in extracellular AK activity)), 1.1; in the assay with E. faecium (50 μM final drug concentration, 384-well format, cutoff for positive-scoring molecules 3-fold increase, read-out: AK-based Prestwick Library Screening Results, E. faecium (increase in extracellular AK activity)) it was 1; in the assay on K. pneumoniae (50 μM final drug concentration, 384-well format, cutoff for positive-scoring molecules 3-fold increase, read-out: AK-based Prestwick Library Screening Results, K. pneumoniae (increase in extracellular AK activity)), 1; with E. coli (50 μM final drug concentration, 384-well format, cutoff for positive-scoring molecules 3-fold increase, read-out: AK-based Prestwick Library Screening Results, E. coli (increase in extracellular AK activity)), 1.3.

With `O=C1CC[C@@]2(O)[C@H]3Cc4ccc(O)c5c4[C@@]2(CCN3CC2CC2)[C@H]1O5` [Naltrexone hydrochloride dihydrate], the fold induction at 50 µM is 0.8 in the assay on P. aeruginosa (read-out: AK-based Prestwick Library Screening Results, P. aeruginosa (increase in extracellular AK activity)); 0.7 in assay [1] (read-out: AK-based Prestwick Library Screening Results, S. aureus (increase in extracellular AK activity)); 0.9 in assay [2] (read-out: AK-based Prestwick Library Screening Results, A. baumannii (increase in extracellular AK activity)); 1 in the assay on E. faecium (read-out: AK-based Prestwick Library Screening Results, E. faecium (increase in extracellular AK activity)); 0.6 in the assay on K. pneumoniae (read-out: AK-based Prestwick Library Screening Results, K. pneumoniae (increase in extracellular AK activity)); 0.9 in the assay with E. coli (read-out: AK-based Prestwick Library Screening Results, E. coli (increase in extracellular AK activity)).
